Experimental data as given in PMC8076288, “Effect of respiratory inhibitors and quinone analogues on the aerobic electron transport system of Eikenella corrodens” (Scientific Reports, 2021).
pIC50: −log10 of the molar value.

Key:
[1] = target: T1, bc1 complex (complex III) (Eikenella corrodens, UniProt V7IIL5); experiment: polarographic O2 uptake (Clark electrode), succinate oxidase of membranes; type: biochemical; details: succinate as substrate, 34 °C; read-out is the whole succinate respiration
T1 construct: gene HMPREF1177_00380; native complex in isolated membrane particles, not purified; with Ubiquinol-cytochrome c reductase iron-sulfur subunit; Cytochrome c1
T1 sequence (V7IIL5 1-530): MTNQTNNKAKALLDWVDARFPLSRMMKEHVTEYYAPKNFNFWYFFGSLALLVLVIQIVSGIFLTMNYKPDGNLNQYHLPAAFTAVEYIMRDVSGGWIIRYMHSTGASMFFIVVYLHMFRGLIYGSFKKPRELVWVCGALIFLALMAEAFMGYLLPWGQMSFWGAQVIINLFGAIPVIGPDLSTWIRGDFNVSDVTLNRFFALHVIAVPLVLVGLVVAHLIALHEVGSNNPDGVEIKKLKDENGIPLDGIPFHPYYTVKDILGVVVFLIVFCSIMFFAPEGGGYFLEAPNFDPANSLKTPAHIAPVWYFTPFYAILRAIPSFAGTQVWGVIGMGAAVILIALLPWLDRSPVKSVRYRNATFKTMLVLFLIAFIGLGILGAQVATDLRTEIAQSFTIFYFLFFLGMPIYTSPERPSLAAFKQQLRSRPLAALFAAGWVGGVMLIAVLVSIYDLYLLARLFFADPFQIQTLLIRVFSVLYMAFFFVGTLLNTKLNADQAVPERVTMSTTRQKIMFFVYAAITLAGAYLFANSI
T1 sequence (V7IHH9 1-197 partner): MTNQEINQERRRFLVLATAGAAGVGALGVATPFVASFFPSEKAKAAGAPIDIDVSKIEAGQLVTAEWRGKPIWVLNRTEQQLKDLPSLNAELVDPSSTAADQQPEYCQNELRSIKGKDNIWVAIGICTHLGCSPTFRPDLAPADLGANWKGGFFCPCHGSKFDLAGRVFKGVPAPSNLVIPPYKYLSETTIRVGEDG

[2] = target: T2, dissimilatory nitrate reductase, Nar (Eikenella corrodens, UniProt V7IBI8); experiment: oxidation of reduced methyl viologen at […] nm, membranes; type: biochemical; details: 1 mM dithionite-reduced methyl viologen, 2 mM nitrate, pH 7.4, anaerobic
T2 construct: gene HMPREF1177_02096; with Respiratory nitrate reductase beta subunit; Respiratory nitrate reductase gamma subunit
T2 sequence (V7IA22 entry or part of it): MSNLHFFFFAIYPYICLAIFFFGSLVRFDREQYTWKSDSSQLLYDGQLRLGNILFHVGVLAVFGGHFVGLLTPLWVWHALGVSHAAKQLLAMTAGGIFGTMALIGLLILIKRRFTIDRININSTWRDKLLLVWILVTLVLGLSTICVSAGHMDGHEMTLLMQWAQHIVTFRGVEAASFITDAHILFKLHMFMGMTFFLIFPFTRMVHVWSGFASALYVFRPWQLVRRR
T2 sequence (V7IBP6 entry or part of it, further chain): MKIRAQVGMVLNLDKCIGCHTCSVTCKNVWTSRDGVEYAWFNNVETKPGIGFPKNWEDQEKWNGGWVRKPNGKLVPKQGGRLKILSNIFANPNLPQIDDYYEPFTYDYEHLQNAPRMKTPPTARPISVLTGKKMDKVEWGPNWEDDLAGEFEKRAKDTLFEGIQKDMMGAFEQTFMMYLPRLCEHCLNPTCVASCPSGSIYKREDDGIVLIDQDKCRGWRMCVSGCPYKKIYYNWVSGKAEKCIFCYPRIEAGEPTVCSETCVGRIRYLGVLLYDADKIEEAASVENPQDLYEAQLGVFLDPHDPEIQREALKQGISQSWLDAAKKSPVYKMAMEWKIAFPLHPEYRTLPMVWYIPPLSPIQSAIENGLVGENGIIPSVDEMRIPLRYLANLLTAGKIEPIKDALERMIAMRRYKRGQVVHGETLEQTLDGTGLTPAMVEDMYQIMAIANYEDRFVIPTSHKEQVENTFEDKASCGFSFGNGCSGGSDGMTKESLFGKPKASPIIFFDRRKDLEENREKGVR
T2 sequence (V7IBI8 entry or part of it): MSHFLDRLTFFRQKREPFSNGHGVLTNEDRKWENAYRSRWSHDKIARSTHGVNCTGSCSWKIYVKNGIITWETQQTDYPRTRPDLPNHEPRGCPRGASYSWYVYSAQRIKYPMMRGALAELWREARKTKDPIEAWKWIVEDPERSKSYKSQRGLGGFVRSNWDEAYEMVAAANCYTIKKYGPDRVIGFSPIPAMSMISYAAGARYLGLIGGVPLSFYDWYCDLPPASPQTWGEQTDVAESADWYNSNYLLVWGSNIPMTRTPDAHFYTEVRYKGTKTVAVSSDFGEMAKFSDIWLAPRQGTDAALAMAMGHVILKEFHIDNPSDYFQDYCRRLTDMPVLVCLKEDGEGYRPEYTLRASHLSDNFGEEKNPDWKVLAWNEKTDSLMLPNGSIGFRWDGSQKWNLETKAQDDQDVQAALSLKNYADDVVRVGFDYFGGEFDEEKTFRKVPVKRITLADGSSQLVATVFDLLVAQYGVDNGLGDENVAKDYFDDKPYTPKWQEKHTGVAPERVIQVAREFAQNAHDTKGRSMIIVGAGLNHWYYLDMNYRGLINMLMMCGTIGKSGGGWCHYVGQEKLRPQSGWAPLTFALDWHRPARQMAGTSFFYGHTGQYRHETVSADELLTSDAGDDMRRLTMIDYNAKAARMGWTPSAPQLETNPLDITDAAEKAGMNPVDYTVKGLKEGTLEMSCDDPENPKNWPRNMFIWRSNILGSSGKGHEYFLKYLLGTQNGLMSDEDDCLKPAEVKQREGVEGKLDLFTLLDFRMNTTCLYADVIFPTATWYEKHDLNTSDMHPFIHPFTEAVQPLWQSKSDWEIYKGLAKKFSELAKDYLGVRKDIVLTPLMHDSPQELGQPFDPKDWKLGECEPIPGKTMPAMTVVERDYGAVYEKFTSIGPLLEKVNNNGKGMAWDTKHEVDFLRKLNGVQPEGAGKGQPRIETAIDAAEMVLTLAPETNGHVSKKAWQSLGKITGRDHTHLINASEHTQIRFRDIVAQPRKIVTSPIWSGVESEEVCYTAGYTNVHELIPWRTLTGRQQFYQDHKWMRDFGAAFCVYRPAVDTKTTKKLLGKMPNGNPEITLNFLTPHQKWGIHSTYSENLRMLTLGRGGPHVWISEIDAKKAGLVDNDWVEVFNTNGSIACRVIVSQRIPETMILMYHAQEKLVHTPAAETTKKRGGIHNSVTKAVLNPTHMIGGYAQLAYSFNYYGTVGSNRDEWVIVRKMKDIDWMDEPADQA

Row | Compound | pIC50 [1] | oxidation of reduced methyl viologen at 600 nm, membranes [2]
1 | antimycin A3 | 4.70 | 
2 | O=[N+]([O-])O [nitrate] |  | The reaction was started by the injection of an anaerobic solution of potassium nitrate
3 | CCCCCCCc1cc(O)c2ccccc2[n+]1[O-] [HQNO, 2-heptyl-4-hydroxyquinoline-N-oxide] | 4.40 | 
